In article PMC6120666 (The EMBO Journal, 2018):

System: THP1Blue cells, TLR1/TLR2/TLR4
Test: THP1Blue NF-κB-SEAP reporter assay, non-NOD agonists (Pam3CSK4, LPS, HKLM)
Format: cell-based, human
Conditions: Pam3CSK4, LPS or HKLM
Procedure: For HEKBlue assay, cells were seeded into clear 96‐well plates at 7.5 × 10^3 cells/well and allowed to attach for 48 h. On the day of the experiment, media was changed to 100 μl of HEKBlue detection media (InvivoGen). Inhibitors were diluted and added in 0.5 μl DMSO 15 min prior to the addition of 1 ng/ml L18‐MDP (InvivoGen). After 8–9 h, absorbance at 620 nm was measured using Victor3V plate reader (Perkin Elmer, Waltham, MA). Values of media‐only wells were subtracted and %inhibition for each compound concentration relative to the DMSO/L18‐MDP‐treated controls was calculated. […] After induction, 20 μl of media was mixed with 180 μl of QUANTI‐Blue reagent (InvivoGen) and incubated at 37°C for 3–4 h, followed by absorbance measurement at 620 nm. IC50 values were calculated as described for HEKBlue assay. […]
For HEKBlue assay, cells were seeded into clear 96 well plates at 7.5x10^3 cells/well and allowed to attach for 48 h. […] After 8-9 h, absorbance at 620 nm was measured using Victor3V plate reader (Perkin Elmer, Waltham, MA). Values of media-only wells were subtracted and %inhibition for each compound concentration relative to the DMSO/L18-MDP-treated controls were calculated.
Inhibition values + StDev were fitted by non-linear regression using Prism software (GraphPad Software, La Jolla, CA) to calculate IC50 values. […] IC50 values were calculated as described for HEKBlue assay. […]

Structure (SMILES): CCCS(=O)(=O)Nc1cc(-c2cc(-c3ccc(N4CCNCC4)cc3)cnc2N)cc(F)c1OC [CSLP37]
- effect on NF-κB responses to non-NOD agonists: no detected effect

Structure (SMILES): CCCS(=O)(=O)Nc1cc(-c2cc(-c3ccc(N4CCNCC4)cc3)cnc2N)cc(OC)c1OC [CSLP43]
- effect on NF-κB responses to non-NOD agonists: no detected effect
